# Experimental data: article PMC8465290, “Zoledronic Acid as a Novel Dual Blocker of KIR6.1/2-SUR2 Subunits of ATP-Sensitive K^+ Channels: Role in the Adverse Drug Reactions” (Pharmaceutics, 2021)
# Key:
# [1] = Pharmacovigilance analysis of A.D.R. in EudraVigilance database; parameters: species or system human
# Source text: All coding preferred terms per System Organ Class (S.O.C.) were screened in the EudraVigilance database (http://www.adrreports.eu/ accessed on 1 May 2021), and those potentially associated with KATP channel blocking actions were reported and subject to analysis.
# The data were extracted from EudraVigilance, collected, and analyzed on Microsoft 365 Excel software package (Microsoft 10.00). The not specified category was not included in the calculation. The duplication of a specific report per S.O.C. was evaluated manually and excluded from the analysis.
# The Proportional Reporting Ratio (P.R.R.) was calculated using the following equation: a/(a+c)/b/(b + d) where a is the reaction of interest to a given drug of interest, b is the reaction of interest for all other drugs in the class, c are all other reactions to a given drug of interest, and d are all other reactions to all other drugs in the class. Signal definition: P.R.R. ≥ 2, a minimum of three ratios/cases for the reaction of interest, X^2 ≥ 4. No signal is identified if P.R.R. is = 1 [47].
# [2] = system: KATP channels of femora primary bone cells; experiment: KATP currents in cell-attached patches of femora (long bone) primary bone cells; format: cell-based, mice; conditions: C-A patches, nanomolar concentrations, Figure 1C
# Procedure: The culture of primary bone cells from adult mice was obtained from long bones (tibia and femur) and calvaria, as previously described. Bones were collected, cleaned, and flushed for removing the internal bone marrow cells. Small bone pieces of around 1 mm^3 were treated with trypsin-EDTA 0.25% (w/v) for 1 h and with 0.2% collagenase solution for an additional hour in a shaking water bath to remove all remaining soft tissue and adherent cells. Clean bone pieces have been cultured in basal medium enriched with 50 µg/mL of ascorbic acid. Osteoblasts from femora (Figure S1A, Supplementary Material) and calvaria chips (Figure S1B) were positive to Alizarin red staining (Figure S1C). The marker of osteoblasts was positive, as tested by the PCR expression analysis on cell pellets (Figure S1D).
# The solutions for whole-cell and cell attached patches were as follows. The pipette solution contained 132 mM KCl, 1 mM ethylene glycol-bis(β-aminoethylether)-N,N,N′,N′-tetraaceticacid (EGTA), 10 mM NaCl, 2 mM MgCl2, 10 mM HEPES, 1 mM Na2ATP, and 0.3 mM Na2GDP (pH = 7.2). The bath solution contained 142 mM NaCl, 2.8 mM KCl, 1 mM CaCl2, 1 mM MgCl2, 11 mM glucose, and 10 mM HEPES (pH = 7.4).
# The whole-cell and cell-attached patch-clamp experiments were performed in asymmetrical K^+ ion concentration in physiological conditions using pipettes with the resistance of 3–5 MΩ.
# Drug actions on the channel currents recorded during instantaneous I/V relationships were investigated by applying a depolarization protocol, in response to voltage pulses from −180 mV to +100 mV (Vm) in 20 mV steps. Currents were expressed as densities (pA/pF) to control for cell size/capacitance differences. All experiments were performed at room temperature (20–22 °C) and sampled at 2 kHz (filter = 1 kHz) using an Axopatch-1D amplifier equipped with a CV-4 headstage (Axon Instruments; Foster City, CA, USA). Drug solutions were applied using a fast perfusion system during the continuous monitoring of the seal resistance at 18–22 °C room temperature in excised patches. In whole-cell and cell-attached patch-clamp experiments, before recording, the cells were equilibrated for 10 s with the solution. Data acquisition and analysis were performed using pCLAMP 10 software suite (Axon Instruments; Foster City, CA, USA), as previously described. Seal resistance was continuously monitored during the experiment.
# The percentage of KATP current inhibition induced by ZOL was calculated as (I CTRL-I drug)/(I CTRL-I BaCl2) × −100. The concentration response data of ZOL against different KATP channel currents were fitted by an algorithm using the non-linear dynamic fitting routine of Sigma Plot, 10.0.
# [3] = within the KATP channel blockers
compound,measurement,setting,value
CCOc1cc(CC(=O)N[C@@H](CC(C)C)c2ccccc2N2CCCCC2)ccc1C(=O)O [repaglinide],"hypoglycemia, % of the A.D.R. per S.O.C.",[1],84.6%
same,"rhabdomyolysis, % of A.D.R.",[1]; within musculoskeletal and connective tissue disorders,17.8%
same,Proportional Reporting Ratio (P.R.R.) hypoglycemia,[1]; [3],≥ 2
CCCCNC(=O)NS(=O)(=O)c1ccc(C)cc1 [tolbutamide],inhibition of KATP currents in C-A patches (in words),[2],less effective inhibitor
Cc1ccc(S(=O)(=O)NC(=O)NN2CC3CCCC3C2)cc1 (centres unmarked) [gliclazide],Proportional Reporting Ratio (P.R.R.) muscular weakness,[1]; [3],≥ 2
